Test results as given in patent publication US20090012168A1, “ADIPONECTION INDUCERS OR SECRETAGOGUES” (AJINOMOTO CO., INC., priority 2004, published 2009).

What was measured:
3T3-L1 cells = test: Adiponectin concentration in culture supernatant of 3T3-L1 cells (LANCE method); format: cell-based, mouse; details: for production of adiponectin as compared with Zero medium (FIG. 1): 3T3-L1 cells, 72 hours, amino acid concentration changed in Zero medium, mixture equimolar; for Concentration of adiponectin in the case of adding one kind of amino acids to Zero medium: 3T3-L1 culture supernatant after 72 hour incubation, amino acid at fourfold of that in Full medium, average values, N=2, Zero medium 61; for concentration of adiponectin in the culture supernatant in mediums to which the amino acid was added: amino acid added to Zero medium at fourfold of Full medium; for concentration of adiponectin in the culture supernatant in mediums to which the amino acid was added / concentration of adiponectin in mediums without the amino acid: 72 hour incubation; for concentration of adiponectin in mediums without the amino acid: amino acid removed from Full medium
Experimental: 3T3-L1 cells were suspended in D-MEM medium containing 10% fetal bovine serum to become 1.5×10^5 cells/mL and seeded. After the incubation in the CO2 incubator at 37° C. for 72 hours, the medium was removed by suction. Then, the medium was exchanged for D-MEM medium containing 10 ug/mL of insulin, 1 uM of dexamethazone, 0.5 mM of IBMX (3-isobutyl-1-methylxanthine) and 10% fetal bovine serum, and further incubated in the CO2 incubator at 37° C. for 48 hours. After removing the medium, it was further exchanged for the medium wherein the concentrations of amino acids were changed, with addition of 10% dialyzed fetal bovine serum (F-0392, by SIGMA), and further incubated in CO2 incubator at 37° C. for 72 hours.
D-MEM medium contains, as amino acids, 30 mg/L of glycine (Gly); 35.6 mg/L of alanine (Ala); 42 mg/L of serine (Ser); 95 mg/L of threonine (Thr); 63 mg/L of cysteine (Cys)/2HCl; 30 mg/L of methionine (Met); 1168 mg/L of glutamine (Gln); 52.8 mg/L of asparagine (Asn); 58.8 mg/L of glutaminic acid (Glu); 106.4 mg/L of asparaginic acid (Asp); 94 mg/L of valine (Val); 105 mg/L of leucine (Leu); 105 mg/L of isoleucine (Ile); 66 mg/L of phenylalanine (Phe); 208 mg/L of tylosin (Tyr)/2Na/2H2O; 16 mg/L of triptophan (Trp); 146 mg/L of lysine (Lys)/HCl; 84 mg/L of arginine (Arg); 42 mg/L of histidine (His)/HCl/H2O; and 46 mg/L of proline (Pro). Regarding the expression of the mediums, for example, Δ Met indicates the medium having the same compositions of vitamins and salts as those of D-MEM medium and said medium wherein one kind of amino acids, methionine (Met), is removed. Full medium indicates the one containing all amino acids, and Zero medium indicates the one removing all amino acids.
Eu (Europium) chelate labeling of anti-mouse adiponectin antibody (AF1119, by R&D Systems) was conducted by using 100 ug of LANCE Eu-W1024-ITC chelate (AD0013 by Perkin Elmer), which is a Eu chelate labeling reagent, to 200 μg of the antibody in accordance with the method described in the manual. Biotin labeling of anti-mouse adiponectin antibody (AF1119, by R&D Systems) was conducted by using 26.8 ug of NHS-Biotin (1418165, Biotin Labeling Kit, by Boehringer Mannheim), which is a biotin labeling reagent, to 100 μg of the antibody in accordance with the method described in the manual.
The amount of adiponectin in the cell culture supernatant was measured as follows. The culture supernatant was diluted tenfold with TBS (Tris-buffered saline; 20 mM Tris-HCl pH7.4, 0.15M NaCl) containing 0.1% bovine serum albumin (BSA), and 10 μL thereof was mixed with 300 ng/mL of the Eu chelate labeled antibody, 300 ng/mL of the biotin labeled antibody and 10 μL of a solution (TBS containing 0.1% BSA) containing 2.5 μg/mL of Streptavidin-APC (AD0201, by Perkin Elmer) on the 384-well plate. After preserving the mixture at room temperature for 2 days, LANCE count was measured by using ARVO-SX multilabel counter (by Perkin Elmer) in accordance with the protocol of the LANCE method. At the same time, the mouse adiponectin preparation (8060-K, by LINCO) was also measured, and the concentration of adiponectin in the culture supernatant was calculated from the calibration curve of the preparation.

ob/ob mice [1] = test: Adiponectin concentration in plasma of ob/ob mice given experimental diets; format: in vivo, mouse; details: experimental diet containing 4%, 17 days
Text: Male ob/ob mice of 5 week old (purchased from Charles River Laboratories Japan, Inc.) were preliminarily fed by a basic diet containing 25% by weight ratio of fats. Then, they were divided into groups so that their body weights and non-fasting blood glucose were the same between the groups. The used basic diet contained 17% by weight of casein and 48% by weight of starch in addition to 25% of lipids. Then, an experimental diet (containing 25% of fats) containing 4% of BCAA (its composition is a mixture of Leu, Ile and Val; their weight ratio is […]=1:1:1), Leu or Ile was provided to them. The control group was given an experimental diet wherein casein was increased by 4% from the basic diet instead of the amino acids (Control Group). […] On the 17th day of provision of the experimental diet, their blood was collected and their blood glucose was measured to determine the adiponectin concentration in plasma. […] After extracting RNA, adiponectin mRNA was determined. The blood glucose of a mouse was measured by collecting 6 μL of its blood from the caudal vein and using a Fuji […] system (produced by FUJIFILM Medical Co., Ltd.). The adiponectin concentration in plasma was measured by the following method. […] After leaving the mixture at room temperature for 2 days, LANCE count was measured by using ARVO-SX multilabel counter (by Perkin Elmer) in accordance with the protocol of the LANCE method. […]

adiponectin mRNA = test: Adiponectin mRNA in subcutaneous fats of ob/ob mice given experimental diets; format: in vivo, mouse; details: 23rd day of 4% diet, amended with β-actin mRNA
Text: Male ob/ob mice of 5 week old (purchased from Charles River Laboratories Japan, Inc.) were preliminarily fed by a basic diet containing 25% by weight ratio of fats. Then, they were divided into groups so that their body weights and non-fasting blood glucose were the same between the groups. The used basic diet contained 17% by weight of casein and 48% by weight of starch in addition to 25% of lipids. Then, an experimental diet (containing 25% of fats) containing 4% of BCAA (its composition is a mixture of Leu, Ile and Val; their weight ratio is Leu:Ile:Val=1:1:1), Leu or Ile was provided to them. The control group was given an experimental diet wherein casein was increased by 4% from the basic diet instead of the amino acids (Control Group). As for the composition of each experimental diet, the starch content was adjusted so that each calorie per unit weight became the same. On the 17th day of provision of the experimental diet, their blood was collected and their blood glucose was measured to determine the adiponectin concentration in plasma. Further, on the 23rd day after starting the provision of the experimental food, autopsy was conducted, and subcutaneous fats were collected to freeze for preservation. After extracting RNA, adiponectin mRNA was determined. […]

ob/ob mice [2] = test: Non-fasting blood glucose of ob/ob mice given experimental diets; format: in vivo, mouse; details: experimental diet containing 4%, 17 days
Text: Male ob/ob mice of 5 week old (purchased from Charles River Laboratories Japan, Inc.) were preliminarily fed by a basic diet containing 25% by weight ratio of fats. Then, they were divided into groups so that their body weights and non-fasting blood glucose were the same between the groups. The used basic diet contained 17% by weight of casein and 48% by weight of starch in addition to 25% of lipids. Then, an experimental diet (containing 25% of fats) containing 4% of BCAA (its composition is a mixture of Leu, Ile and Val; their weight ratio is […]=1:1:1), Leu or Ile was provided to them. The control group was given an experimental diet wherein casein was increased by 4% from the basic diet instead of the amino acids (Control Group). As for the composition of each experimental diet, the starch content was adjusted so that each calorie per unit weight became the same. On the 17th day of provision of the experimental diet, their blood was collected and their blood glucose was measured to determine the adiponectin concentration in plasma. […] After extracting RNA, adiponectin mRNA was determined. The blood glucose of a mouse was measured by collecting 6 μL of its blood from the caudal vein and using a Fuji […] system (produced by FUJIFILM Medical Co., Ltd.). The adiponectin concentration in plasma was measured by the following method.

| SMILES | production of adiponectin as compared with Zero medium (FIG. 1) (3T3-L1 cells) | Concentration of adiponectin in the case of adding one kind of amino acids to Zero medium (3T3-L1 cells) [ng/mL] | concentration of adiponectin in the culture supernatant in mediums to which the amino acid was added (3T3-L1 cells) | concentration of adiponectin in mediums without the amino acid (3T3-L1 cells) | adiponectin concentration in plasma as compared with before the start of providing the diet (FIG. 3) (ob/ob mice [1]) | amount of adiponectin mRNA in adipose tissues (FIG. 5) (adiponectin mRNA) | non-fasting blood glucose as compared with before the start of providing the diet (FIG. 2) (ob/ob mice [2]) |
| --- | --- | --- | --- | --- | --- | --- | --- |
| CC(C)[C@H](N)C(=O)O [Val, valine] | increase of the production of adiponectin was seen | 83 | increased | significantly decreased | – | – | – |
| CSCC[C@H](N)C(=O)O [Met, methionine] | – | 66 | – | significantly decreased | – | – | – |
| C[C@H](N)C(=O)O [Ala, alanine] | – | 98 | increased | – | – | – | – |
| CC(C)C[C@H](N)C(=O)O [Leu, leucine] | increase of the production of adiponectin was seen | – | – | – | tended to increase | tended to increase | significantly decreased |
| N[C@@H](CS)C(=O)O [Cys, cysteine] | – | 83 | increased | significantly decreased | – | – | – |
| NC(=O)CC[C@H](N)C(=O)O [Gln, glutamine] | – | 21 | – | – | – | – | – |
| CC[C@H](C)[C@H](N)C(=O)O [Ile, isoleucine] | increase of the production of adiponectin was seen | 119 | increased | – | tended to increase | tended to increase | significantly decreased |
